From ChEMBL document CHEMBL1201862, “PubChem BioAssay data set” (2004)
The source made the active and inactive calls.

Legend:
Format in all cases: functional
[1] = biological target: Induced myeloid leukemia cell differentiation protein Mcl-1 (Homo sapiens, UniProt Q07820)
[2] = test system: SN12K1; experiment: cells; conditions: Homo sapiens
[3] = test system: P388/ADR; experiment: cells; conditions: Mus musculus
[4] = test system: P388; experiment: cells; conditions: Mus musculus
[5] = biological target: T1, Protein RecA (Mycobacterium tuberculosis, UniProt P9WHJ3); experiment: Fluorescence Cell-Free Homogeneous Dose Retest to Identify Inhibitors of RecA-Intein Splicing Activity. [Related pubchem assays (depositor defined):AID2097, AID2223, AID489010, AID492950]
T1 sequence (P9WHJ3 whole entry): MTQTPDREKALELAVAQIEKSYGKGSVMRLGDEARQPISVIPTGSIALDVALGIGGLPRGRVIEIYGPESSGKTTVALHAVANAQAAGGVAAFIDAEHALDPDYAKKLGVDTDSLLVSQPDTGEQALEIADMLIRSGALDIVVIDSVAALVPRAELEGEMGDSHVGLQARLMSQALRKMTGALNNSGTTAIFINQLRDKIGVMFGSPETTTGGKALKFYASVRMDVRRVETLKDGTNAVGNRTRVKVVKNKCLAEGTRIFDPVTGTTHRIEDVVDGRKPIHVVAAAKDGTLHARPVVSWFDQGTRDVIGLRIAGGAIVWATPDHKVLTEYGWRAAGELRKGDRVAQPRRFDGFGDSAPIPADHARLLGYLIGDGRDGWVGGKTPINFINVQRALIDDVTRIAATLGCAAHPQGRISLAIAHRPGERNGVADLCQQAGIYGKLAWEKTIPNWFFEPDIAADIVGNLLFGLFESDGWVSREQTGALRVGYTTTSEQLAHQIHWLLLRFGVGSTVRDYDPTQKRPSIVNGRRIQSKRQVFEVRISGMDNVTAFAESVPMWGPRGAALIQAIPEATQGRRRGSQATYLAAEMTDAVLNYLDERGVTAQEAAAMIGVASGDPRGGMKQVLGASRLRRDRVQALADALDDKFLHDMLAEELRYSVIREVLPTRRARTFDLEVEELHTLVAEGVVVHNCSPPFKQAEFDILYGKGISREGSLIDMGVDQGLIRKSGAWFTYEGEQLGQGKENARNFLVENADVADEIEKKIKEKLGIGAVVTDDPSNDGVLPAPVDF

[6] = biological target: Genome polyprotein (dengue virus type 2, UniProt P29990); experiment: flavivirus cap methylation enzyme inhibition – biochemical, confirmation dose response, primary screen (AID 588689)
[7] = biological target: T2, Replicative DNA helicase DnaB (Mycobacterium tuberculosis, UniProt P9WMR3); experiment: DnaB intein splicing inhibitors, dose response, biochemical, cell-free fluorescence (AID 449749)
T2 sequence (P9WMR3 whole entry): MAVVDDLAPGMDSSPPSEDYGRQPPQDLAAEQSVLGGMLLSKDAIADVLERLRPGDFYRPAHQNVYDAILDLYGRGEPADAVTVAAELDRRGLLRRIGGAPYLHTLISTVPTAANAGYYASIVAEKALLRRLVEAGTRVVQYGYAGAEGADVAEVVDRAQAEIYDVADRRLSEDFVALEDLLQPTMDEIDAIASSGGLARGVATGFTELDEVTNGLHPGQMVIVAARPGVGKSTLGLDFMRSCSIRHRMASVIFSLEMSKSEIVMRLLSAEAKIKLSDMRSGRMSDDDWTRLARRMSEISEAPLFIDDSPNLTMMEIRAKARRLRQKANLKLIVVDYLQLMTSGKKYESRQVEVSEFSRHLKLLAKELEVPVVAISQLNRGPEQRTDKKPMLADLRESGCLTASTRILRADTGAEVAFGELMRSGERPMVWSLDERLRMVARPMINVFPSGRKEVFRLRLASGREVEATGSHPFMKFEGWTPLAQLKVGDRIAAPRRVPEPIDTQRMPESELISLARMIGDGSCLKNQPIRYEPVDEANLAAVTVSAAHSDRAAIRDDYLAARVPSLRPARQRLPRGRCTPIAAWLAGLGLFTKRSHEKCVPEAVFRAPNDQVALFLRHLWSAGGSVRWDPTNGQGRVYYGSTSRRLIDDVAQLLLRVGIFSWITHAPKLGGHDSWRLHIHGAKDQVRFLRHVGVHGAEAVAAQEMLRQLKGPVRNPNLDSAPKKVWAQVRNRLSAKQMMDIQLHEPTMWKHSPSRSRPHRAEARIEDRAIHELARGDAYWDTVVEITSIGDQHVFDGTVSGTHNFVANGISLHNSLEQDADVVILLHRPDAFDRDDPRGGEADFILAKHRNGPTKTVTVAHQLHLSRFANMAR

[8] = biological target: T3, Leucine aminopeptidase (Plasmodium falciparum 3D7, UniProt Q8IL11); experiment: P. falciparum M17LAP inhibitors, primary screen, biochemical, fluorogenic H-Leu-NHMec substrate, 1536-well (AID 1619)
T3 sequence (Q8IL11 whole entry): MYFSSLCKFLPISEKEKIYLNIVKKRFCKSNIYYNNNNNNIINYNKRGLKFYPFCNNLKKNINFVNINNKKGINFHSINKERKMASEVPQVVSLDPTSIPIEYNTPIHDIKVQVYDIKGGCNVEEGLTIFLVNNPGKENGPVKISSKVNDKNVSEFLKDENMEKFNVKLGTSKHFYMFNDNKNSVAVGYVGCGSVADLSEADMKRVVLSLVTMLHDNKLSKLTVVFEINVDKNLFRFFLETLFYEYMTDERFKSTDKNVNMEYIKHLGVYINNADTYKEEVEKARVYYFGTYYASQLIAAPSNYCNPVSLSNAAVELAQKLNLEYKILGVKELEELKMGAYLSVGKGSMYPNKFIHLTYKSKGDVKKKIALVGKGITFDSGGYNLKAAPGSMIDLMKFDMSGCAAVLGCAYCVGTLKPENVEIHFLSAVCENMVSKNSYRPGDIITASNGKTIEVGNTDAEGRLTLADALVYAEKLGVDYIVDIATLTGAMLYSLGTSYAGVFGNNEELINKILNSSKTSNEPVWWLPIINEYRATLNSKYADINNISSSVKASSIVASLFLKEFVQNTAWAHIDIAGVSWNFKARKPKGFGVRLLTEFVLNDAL

[9] = biological target: T4, Short transient receptor potential channel 4 (Mus musculus, UniProt Q9QUQ5); experiment: block of DAMGO-driven TRPC4 calcium entry – cell-based, HEK293 TRPC4/mu-opioid, Fluo-4 calcium, dose response (AID 434942);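 note: potency of inhibitors blocking the TRPC4 calcium response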
T4 sequence (Q9QUQ5 whole entry): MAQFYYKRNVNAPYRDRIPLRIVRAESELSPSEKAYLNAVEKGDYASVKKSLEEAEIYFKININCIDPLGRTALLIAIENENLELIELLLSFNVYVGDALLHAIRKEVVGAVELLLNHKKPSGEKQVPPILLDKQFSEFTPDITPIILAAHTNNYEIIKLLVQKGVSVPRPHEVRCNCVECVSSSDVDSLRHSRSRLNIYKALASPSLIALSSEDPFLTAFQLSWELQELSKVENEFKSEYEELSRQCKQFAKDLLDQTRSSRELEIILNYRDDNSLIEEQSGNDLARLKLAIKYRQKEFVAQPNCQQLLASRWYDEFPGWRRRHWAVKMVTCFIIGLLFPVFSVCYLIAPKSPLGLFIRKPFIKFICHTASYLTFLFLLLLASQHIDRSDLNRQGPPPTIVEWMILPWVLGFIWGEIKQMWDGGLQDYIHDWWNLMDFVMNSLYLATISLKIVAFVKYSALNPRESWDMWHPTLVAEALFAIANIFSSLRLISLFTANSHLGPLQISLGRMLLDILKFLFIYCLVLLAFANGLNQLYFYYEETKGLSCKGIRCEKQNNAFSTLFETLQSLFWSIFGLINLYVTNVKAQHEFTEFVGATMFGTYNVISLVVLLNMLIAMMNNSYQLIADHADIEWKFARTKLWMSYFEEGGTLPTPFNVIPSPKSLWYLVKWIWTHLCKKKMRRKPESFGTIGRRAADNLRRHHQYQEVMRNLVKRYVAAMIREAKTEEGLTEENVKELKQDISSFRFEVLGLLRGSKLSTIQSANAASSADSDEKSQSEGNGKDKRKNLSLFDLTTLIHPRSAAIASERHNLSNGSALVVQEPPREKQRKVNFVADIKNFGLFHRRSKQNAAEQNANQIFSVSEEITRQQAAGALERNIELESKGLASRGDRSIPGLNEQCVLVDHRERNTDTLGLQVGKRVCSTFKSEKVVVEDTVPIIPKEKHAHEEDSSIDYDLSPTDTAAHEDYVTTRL

[10] = viability of HCT116 lacking mutant beta-catenin – cell-based, human colon tumor, dose response (AID 1045);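 note: HCT116 colon tumor cells with beta catenin knocked out; cells exposed to compound for 60 hours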
[11] = viability of PTEN-deleted HCT116 cells – cell-based, HCT116 PTEN knockout, dose response (AID 1047);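 note: HCT116 colon tumor cells with PTEN knocked out; cells exposed to compound for 60 hours before readout; potency for loss of cell viability measured by luminescence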
[12] = biological target: T5, DNA repair and recombination protein RAD54-like (Homo sapiens, UniProt Q92698); experiment: RAD54 Holliday junction migration blockers – biochemical, fluorescence, cherry-picked samples, dose series, confirmation (AID 651657)
T5 sequence (Q92698 whole entry): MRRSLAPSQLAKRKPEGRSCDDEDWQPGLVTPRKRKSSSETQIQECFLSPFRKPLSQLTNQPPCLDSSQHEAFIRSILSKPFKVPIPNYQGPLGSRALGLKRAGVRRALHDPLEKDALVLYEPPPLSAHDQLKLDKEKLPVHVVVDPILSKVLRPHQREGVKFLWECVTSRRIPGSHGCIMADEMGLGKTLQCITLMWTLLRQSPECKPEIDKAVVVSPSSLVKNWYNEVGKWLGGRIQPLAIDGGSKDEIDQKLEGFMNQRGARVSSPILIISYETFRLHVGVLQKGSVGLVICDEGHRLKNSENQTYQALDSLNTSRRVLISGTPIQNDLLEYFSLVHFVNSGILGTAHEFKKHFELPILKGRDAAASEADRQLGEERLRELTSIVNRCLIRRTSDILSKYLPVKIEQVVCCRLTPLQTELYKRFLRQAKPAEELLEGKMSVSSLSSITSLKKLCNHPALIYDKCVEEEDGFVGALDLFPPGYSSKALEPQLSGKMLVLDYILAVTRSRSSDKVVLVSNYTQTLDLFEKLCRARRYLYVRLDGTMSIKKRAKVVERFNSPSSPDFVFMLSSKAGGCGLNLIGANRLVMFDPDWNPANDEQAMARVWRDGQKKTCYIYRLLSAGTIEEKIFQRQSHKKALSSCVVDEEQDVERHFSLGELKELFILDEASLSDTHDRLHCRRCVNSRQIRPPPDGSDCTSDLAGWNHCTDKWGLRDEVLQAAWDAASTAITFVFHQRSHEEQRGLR

Chain of Genome polyprotein (P29990 2492-3391 limits assumed): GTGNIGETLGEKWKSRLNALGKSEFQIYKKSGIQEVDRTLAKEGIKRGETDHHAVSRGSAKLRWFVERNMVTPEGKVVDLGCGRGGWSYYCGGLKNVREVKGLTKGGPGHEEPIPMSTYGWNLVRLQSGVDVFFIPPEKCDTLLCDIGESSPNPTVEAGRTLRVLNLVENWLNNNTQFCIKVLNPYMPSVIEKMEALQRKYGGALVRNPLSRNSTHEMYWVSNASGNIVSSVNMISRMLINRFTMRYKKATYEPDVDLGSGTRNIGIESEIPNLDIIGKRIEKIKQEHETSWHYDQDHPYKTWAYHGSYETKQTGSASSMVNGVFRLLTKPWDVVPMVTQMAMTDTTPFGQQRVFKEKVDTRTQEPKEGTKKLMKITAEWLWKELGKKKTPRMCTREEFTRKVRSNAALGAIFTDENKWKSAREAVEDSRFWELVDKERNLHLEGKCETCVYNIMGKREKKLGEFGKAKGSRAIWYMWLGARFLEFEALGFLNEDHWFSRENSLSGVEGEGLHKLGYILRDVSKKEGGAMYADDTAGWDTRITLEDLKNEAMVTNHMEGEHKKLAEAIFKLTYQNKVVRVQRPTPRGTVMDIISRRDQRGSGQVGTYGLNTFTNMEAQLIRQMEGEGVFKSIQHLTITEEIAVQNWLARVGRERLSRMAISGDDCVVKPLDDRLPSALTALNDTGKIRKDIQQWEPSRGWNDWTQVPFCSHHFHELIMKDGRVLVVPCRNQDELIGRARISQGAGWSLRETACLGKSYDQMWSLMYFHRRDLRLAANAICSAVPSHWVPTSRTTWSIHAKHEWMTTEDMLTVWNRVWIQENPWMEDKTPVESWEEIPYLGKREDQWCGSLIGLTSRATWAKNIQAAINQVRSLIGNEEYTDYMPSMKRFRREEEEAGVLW
Chain of Induced myeloid leukemia cell differentiation protein Mcl-1 (Q07820 whole entry): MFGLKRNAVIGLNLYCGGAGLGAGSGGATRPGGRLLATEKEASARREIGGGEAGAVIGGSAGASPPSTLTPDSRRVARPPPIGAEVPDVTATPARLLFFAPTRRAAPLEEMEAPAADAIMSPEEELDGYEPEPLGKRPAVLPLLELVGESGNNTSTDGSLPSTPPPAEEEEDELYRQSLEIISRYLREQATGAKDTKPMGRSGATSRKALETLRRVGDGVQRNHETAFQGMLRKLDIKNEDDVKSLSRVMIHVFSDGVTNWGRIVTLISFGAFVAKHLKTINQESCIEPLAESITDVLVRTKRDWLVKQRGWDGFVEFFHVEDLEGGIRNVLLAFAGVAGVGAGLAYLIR

Row | SMILES | GI50 [2] | GI50 [3] | GI50 [4] | further results
1 | Cc1sccc1/C=N/NC(=O)c1cccc2ccccc12 |  |  |  | IC50 [1]: 21.1 µM (not active)
2 | COc1cccc2c1C(=O)c1c(O)c3c(c(O)c1C2=O)C[C@@](O)(C(C)=O)C[C@@H]3OC1CC(N(C)C)C(O)C(C)O1 (some centres undefined) | 0.01 µM (active) | 0.01 µM (active) | 0.01 µM (active) | 
3 | CC1=NN(c2ccccc2)C(=O)/C1=C\c1ccc(Oc2ccc([N+](=O)[O-])cc2[N+](=O)[O-])cc1 |  |  |  | EC50 [5]: 5.33 µM (active); IC50 [6]: 19.3 µM (active); AC50 [7]: 3.66 µM (active)
4 | Cc1[nH]c2ccccc2c1/C=C/c1nc2ccccc2c(=O)[nH]1 |  |  |  | IC50 [1]: 5.55 µM (active)
5 | CCOc1ccc(NC(=O)CSCC(=O)O)cc1 |  |  |  | IC50 [8]: 9.94 µM (active)
6 | COc1cc(C2c3cc4c(cc3[C@@H](Nc3ccc5c(c3)OCO5)C3COC(=O)[C@H]23)OCO4)cc(OC)c1O (some centres undefined) | < 0.0414 µM (active) | 0.0548 µM (active) | < 0.01 µM (active) | 
7 | CC(/C=C1\SC(=S)N(C(C(=O)O)C(C)C)C1=O)=C\c1ccccc1 (centres undefined) |  |  |  | EC50 [9]: 5.96 µM (active); IC50 [6]: 34.3 µM (active)
8 | Nc1ccc2c(c1)CN1C(=O)c3ccccc3C1=N2 [DANIQUIDONE] | 23.6 µM (inactive) | 24.8 µM (inactive) | 4.36 µM (inactive) | 
9 | CCc1ccc(NC(=O)C2CCCCC2C(=O)O)cc1 (centres undefined) |  |  |  | IC50 [8]: 12.1 µM (active)
10 | COc1cc([C@@H]2c3cc4c(c(O)c3C[C@H]3COC(=O)[C@@H]32)OCO4)cc(OC)c1OC [BETA-PELTATIN A] |  | 0.015 µM (active) | 0.015 µM (active) | 
11 | c1ccc2c(c1)SP1Sc3ccccc3P21 (centres undefined) | 56.5 µM (inactive) | 28.2 µM (inactive) | 54.2 µM (inactive) | 
12 | CC1CCN(S(=O)(=O)c2ccc(NC(=O)CSc3ncccc3C(=O)O)cc2)CC1 |  |  |  | IC50 [8]: 9.68 µM (active)
13 | COc1ccc(CNc2nc3nc(-c4ccccc4)cc(O)n3n2)cc1OC |  |  |  | IC50 [8]: 24.2 µM (active)
14 | CN(C)C(=O)OCOC(=O)N(C)C | > 100 µM (inactive) | > 100 µM (inactive) | 66.8 µM (inactive) | 
15 | CC1(C)OC2CC(=O)OCC23C1CC(=O)C1(C)C3CCC2(C)C(c3ccoc3)OC(=O)C3OC321 (centres undefined) | 119 µM (inactive) | > 125 µM (inactive) | > 39.5 µM (inactive) | 
16 | O=C(NC1CN2CCC1CC2)c1cc(Cl)c([N+](=O)[O-])c2nc[nH]c12 (centres undefined) |  |  |  | EC50 [10]: 12.1 µM (active); EC50 [11]: 16.3 µM (active); AC50 [12]: 41.6 µM (active)
